Assay results published in ChEMBL document CHEMBL4627344, “Synthesis, biological evaluation and virtual screening of some acridone derivatives as potential anticancer agents” (2020).

How the values were obtained:
Format in all cases: functional
HL-60(TB) = assay: Antiproliferative activity against human HL-60(TB) cells assessed as inhibition of cell growth at 10 uM measured after 48 hrs by SRB assay relative to control; conditions: HL-60, 48 h, read-out: GI
K562 = assay: Antiproliferative activity against human K562 cells assessed as inhibition of cell growth at 10 uM measured after 48 hrs by SRB assay relative to control; conditions: K562, 48 h, read-out: GI
MOLT-4 [1] = assay: Antiproliferative activity against human MOLT4 cells assessed as inhibition of cell growth at 10 uM measured after 48 hrs by SRB assay relative to control; conditions: MOLT-4, 48 h, read-out: GI
SR = assay: Antiproliferative activity against human SR cells assessed as inhibition of cell growth at 10 uM measured after 48 hrs by SRB assay relative to control; conditions: read-out: GI
A549 [2] = assay: Antiproliferative activity against human A549 cells assessed as inhibition of cell growth at 10 uM measured after 48 hrs by SRB assay relative to control; conditions: A549, 48 h, read-out: GI
NCI-H226 = assay: Antiproliferative activity against human NCI-H226 cells assessed as inhibition of cell growth at 10 uM measured after 48 hrs by SRB assay relative to control; conditions: NCI-H226, 48 h, read-out: GI
NCI-H460 [3] = assay: Antiproliferative activity against human NCI-H460 cells assessed as inhibition of cell growth at 10 uM measured after 48 hrs by SRB assay relative to control; conditions: NCI-H460, 48 h, read-out: GI
NCI-H522 = assay: Antiproliferative activity against human NCI-H522 cells assessed as inhibition of cell growth at 10 uM measured after 48 hrs by SRB assay relative to control; conditions: NCI-H522, 48 h, read-out: GI
HT-29 = assay: Antiproliferative activity against human HT-29 cells assessed as inhibition of cell growth at 10 uM measured after 48 hrs by SRB assay relative to control; conditions: HT-29, 48 h, read-out: GI
SF-539 = assay: Antiproliferative activity against human SF539 cells assessed as inhibition of cell growth at 10 uM measured after 48 hrs by SRB assay relative to control; conditions: SF-539, 48 h, read-out: GI
M14 [4] = assay: Antiproliferative activity against human M14 cells assessed as inhibition of cell growth at 10 uM measured after 48 hrs by SRB assay relative to control; conditions: M14, 48 h, read-out: GI
SK-MEL-5 = assay: Antiproliferative activity against human SK-MEL-5 cells assessed as inhibition of cell growth at 10 uM measured after 48 hrs by SRB assay relative to control; conditions: SK-MEL-5, 48 h, read-out: GI
OVCAR-3 = assay: Antiproliferative activity against human OVCAR3 cells assessed as inhibition of cell growth at 10 uM measured after 48 hrs by SRB assay relative to control; conditions: OVCAR-3, 48 h, read-out: GI
OVCAR-8 = assay: Antiproliferative activity against human OVCAR8 cells assessed as inhibition of cell growth at 10 uM measured after 48 hrs by SRB assay relative to control; conditions: OVCAR-8, 48 h, read-out: GI
SN12C = assay: Antiproliferative activity against human SN12C cells assessed as inhibition of cell growth at 10 uM measured after 48 hrs by SRB assay relative to control; conditions: read-out: GI
DU-145 [5] = assay: Antiproliferative activity against human DU145 cells assessed as inhibition of cell growth at 10 uM measured after 48 hrs by SRB assay relative to control; conditions: DU-145, 48 h, read-out: GI
MOLT-4 [6] = assay: Antiproliferative activity against human MOLT4 cells assessed as inhibition of cell growth measured after 48 hrs by SRB assay; conditions: MOLT-4, 48 h
A549 [7] = assay: Antiproliferative activity against human A549 cells assessed as inhibition of cell growth measured after 48 hrs by SRB assay; conditions: A549, 48 h
NCI-H322M = assay: Antiproliferative activity against human NCI-H322M cells assessed as inhibition of cell growth measured after 48 hrs by SRB assay
NCI-H460 [8] = assay: Antiproliferative activity against human NCI-H460 cells assessed as inhibition of cell growth measured after 48 hrs by SRB assay; conditions: NCI-H460, 48 h
SW-620 = assay: Antiproliferative activity against human SW620 cells assessed as inhibition of cell growth measured after 48 hrs by SRB assay; conditions: SW-620, 48 h
M14 [9] = assay: Antiproliferative activity against human M14 cells assessed as inhibition of cell growth measured after 48 hrs by SRB assay; conditions: M14, 48 h
MDA-MB-435 = assay: Antiproliferative activity against human MDA-MB-435 cells assessed as inhibition of cell growth measured after 48 hrs by SRB assay; conditions: MDA-MB-435, 48 h
SK-MEL-2 = assay: Antiproliferative activity against human SK-MEL-2 cells assessed as inhibition of cell growth measured after 48 hrs by SRB assay; conditions: SK-MEL-2, 48 h
IGROV-1 = assay: Antiproliferative activity against human IGROV1 cells assessed as inhibition of cell growth measured after 48 hrs by SRB assay; conditions: IGROV-1, 48 h
NCI/ADR-RES = assay: Antiproliferative activity against human NCI/ADR-RES cells assessed as inhibition of cell growth measured after 48 hrs by SRB assay
786-0 = assay: Antiproliferative activity against human 786-0 cells assessed as inhibition of cell growth measured after 48 hrs by SRB assay; conditions: 786-0, 48 h
A498 = assay: Antiproliferative activity against human A498 cells assessed as inhibition of cell growth measured after 48 hrs by SRB assay; conditions: A498, 48 h
PC-3 = assay: Antiproliferative activity against human PC3 cells assessed as inhibition of cell growth measured after 48 hrs by SRB assay; conditions: PC-3, 48 h
DU-145 [10] = assay: Antiproliferative activity against human DU145 cells assessed as inhibition of cell growth measured after 48 hrs by SRB assay; conditions: DU-145, 48 h
MDA-MB-231 = assay: Antiproliferative activity against human MDA-MB-231 cells assessed as inhibition of cell growth measured after 48 hrs by SRB assay; conditions: MDA-MB-231, 48 h
T47D = assay: Antiproliferative activity against human T47D cells assessed as inhibition of cell growth measured after 48 hrs by SRB assay
MDA-MB-468 = assay: Antiproliferative activity against human MDA-MB-468 cells assessed as inhibition of cell growth measured after 48 hrs by SRB assay; conditions: MDA-MB-468, 48 h
SK-OV-3 = assay: Antiproliferative activity against human SKOV3 cells assessed as inhibition of cell growth measured after 48 hrs by SRB assay; conditions: SK-OV-3, 48 h
HCC 2998 = assay: Antiproliferative activity against human HCC2998 cells assessed as inhibition of cell growth measured after 48 hrs by SRB assay; conditions: HCC 2998, 48 h
OVCAR-5 = assay: Antiproliferative activity against human OVCAR5 cells assessed as inhibition of cell growth measured after 48 hrs by SRB assay; conditions: OVCAR-5, 48 h

| Structure (SMILES) | inhibition of growth at 10 µM (HL-60(TB)) | inhibition of growth at 10 µM (K562) | inhibition of growth at 10 µM (MOLT-4 [1]) | inhibition of growth at 10 µM (SR) | inhibition of growth at 10 µM (NCI-H226) | inhibition of growth at 10 µM (NCI-H460 [3]) | inhibition of growth at 10 µM (NCI-H522) | inhibition of growth at 10 µM (HT-29) | inhibition of growth at 10 µM (SF-539) | inhibition of growth at 10 µM (M14 [4]) | inhibition of growth at 10 µM (SK-MEL-5) | inhibition of growth at 10 µM (OVCAR-3) | inhibition of growth at 10 µM (OVCAR-8) | inhibition of growth at 10 µM (SN12C) | inhibition of growth at 10 µM (DU-145 [5]) | GI50 (MOLT-4 [6]) | GI50 (A549 [7]) | GI50 (NCI-H322M) | GI50 (NCI-H460 [8]) | GI50 (SW-620) | also measured |
| --- | --- | --- | --- | --- | --- | --- | --- | --- | --- | --- | --- | --- | --- | --- | --- | --- | --- | --- | --- | --- | --- |
| COc1ccc2nc3c(cc2c1)C(=O)CC(C(F)(F)F)C3 (stereo unspecified) | 115% | 83.2% | 84.7% | 83.6% | 60.2% | 89.5% | 68.1% | 89.1% | 77.4% | 91.3% | 68.6% | 94.7% | 60% | 57.9% | 95.7% | 88.2 nM | 3030 nM | 1320 nM | 2610 nM | 3450 nM | inhibition of growth at 10 µM (A549 [2]): 60.7%; GI50 (M14 [9]): 238 nM; GI50 (MDA-MB-435): 143 nM; GI50 (SK-MEL-2): 802 nM; GI50 (IGROV-1): 769 nM; GI50 (NCI/ADR-RES): 336 nM; GI50 (786-0): 6570 nM; GI50 (A498): 355 nM; GI50 (PC-3): 835 nM; GI50 (DU-145 [10]): 849 nM; GI50 (MDA-MB-231): 3980 nM; GI50 (T47D): 3290 nM; GI50 (MDA-MB-468): 1870 nM |
| COc1ccc2nc3c(cc2c1)C(=O)CC(c1ccccc1)C3 (stereo unspecified) | 102% | 86.8% | 82.2% | 82.3% | 73.5% | 91.2% | 84.6% | 90% | 92.1% | 90.7% | 69.8% | 107% | 61% | 59.3% | 98.9% | 431 nM | 2070 nM | 5780 nM | 1710 nM | 747 nM | inhibition of growth at 10 µM (A549 [2]): 65.2%; GI50 (M14 [9]): 259 nM; GI50 (MDA-MB-435): 137 nM; GI50 (SK-MEL-2): 777 nM; GI50 (IGROV-1): 2310 nM; GI50 (NCI/ADR-RES): 408 nM; GI50 (SK-OV-3): 2090 nM; GI50 (786-0): 4370 nM; GI50 (A498): 346 nM; GI50 (PC-3): 715 nM; GI50 (DU-145 [10]): 593 nM; GI50 (MDA-MB-231): 3420 nM; GI50 (T47D): 3650 nM |
| O=C1CC(c2ccccc2)Cc2nc3c(Br)cc(Br)cc3cc21 (stereo unspecified) | 95.4% | 86.8% | 79.2% | 80.5% | 85.9% | 97.7% | 91.5% | 91.7% | 93.1% | 94.7% | 118% | 140% | 96% | 60.5% | 99% | 104 nM | 79.2 nM | 74.8 nM | 42.3 nM | 83.9 nM | GI50 (HCC 2998): 282 nM; GI50 (M14 [9]): 284 nM; GI50 (MDA-MB-435): 211 nM; GI50 (SK-MEL-2): 49.2 nM; GI50 (IGROV-1): 125 nM; GI50 (OVCAR-5): 461 nM; GI50 (NCI/ADR-RES): 236 nM; GI50 (SK-OV-3): 102 nM; GI50 (786-0): 813 nM; GI50 (A498): 140 nM; GI50 (PC-3): 66.6 nM; GI50 (DU-145 [10]): 82.6 nM; GI50 (MDA-MB-231): 402 nM; GI50 (T47D): 851 nM; GI50 (MDA-MB-468): 1280 nM |
